From patent publication US20250282802A1, “P[…] AND METHODS” (priority 2020, published 2025)

Experiments:
[1] = test system: Candida albicans SN250; test: Fungicidal bioassay (MIC), Candida albicans; format: cell-based
Method: Bacteria, plasmids and growth conditions. Bacterial strains, plasmids and primers used in this study are described in Table 3 and 4. General chemical and molecular biology reagents were purchased from Sigma-Aldrich or New England Biolabs. Phosphinothricin (glufosinate) was purchased from GoldBio (CAS #77182-82-2). Standard bacterial growth media were prepared as described (Current Protocols in Molecular Biology 2019, 125:e81, e82, e83). E. coli strains were typically grown at 37° C.; P. ananatis strains were typically grown at 30° C. Phosphonate induction media (PIM) was prepared as follows: 8.37 g/L MOPS, 0.72 g/L Tricine, 0.58 g/L NaCl, 0.51 g/L NH4Cl, 1.6 g/L KOH, 0.1 g/L MgCl2·6H2O, 0.05 g/L K2SO4, 0.2 g/L K2HIPO4 were dissolved H2O and steam sterilized for 20 min at 121° C. […]
Fungicidal bioassays. […] Minimum Inhibitory Concentration (MIC) was determined visually by finding the concentration of compound at which there was no visual difference between that concentration and the uninoculated media control.

[2] = test system: MCF-7 (breast cancer); test: Cytotoxicity profiling (Alamar Blue), MCF-7; format: cell-based, human
Method: (§1) FIG. 8. Cytotoxicity of pantaphos across various cancer cell lines. Assays were conducted as described (mBio. 2021 Feb. 2; 12(1):e03402-20), using the Alamar Blue method with 72-hour treatment using Raptinal ([…]) as Dead cell control; n=3. Cell seeding densities: CT26 (colon carcinoma) 2000 c/w; HOS (osteosarcoma) 2500 c/w; ES-2 (ovarian carcinoma), HCT-116 (colorectal carcinoma), A-549 (lung carcinoma), A-172 (glioblastoma), D54 (glioblastoma), U87 (glioblastoma), T98G (glioblastoma), SK-ML-28 (melanoma), MCF-7 (breast cancer), AM38 (glioblastoma) and MDA-MB-231 (breast cancer) 3000 c/w; U118MG (malignant glioma) 4000 c/w; HepG2 (liver cancer) 8000 c/w. c/w=cells per well. IC50 and Emax values shown in Table 6 were extracted from the raw data plotted in FIG. 8.
(§2) Cell culture cytotoxicity screening. The compounds were evaluated for their ability to kill cancer cell lines in culture, using HOS (osteosarcoma); ES-2 (ovarian cancer); HCT 116 (colon cancer); A549 (lung carcinoma); and A172 (glioma) cells. Human skin fibroblast cells (HFF-1) were also assessed. Cells were seeded (3000 cells well^−1 for ES-2, HCT 116, A549 and A172; 4000 cells well^−1 for HFF-1 and 2500 cells well^−1 for HOS) in a 96-well plate and allowed to attach overnight. Cells were treated with pantaphos in water. The concentrations of the tested compounds were 5 nM to 100 μM (1% water final; 100 μl well^−1). Raptinal (50 μM) was used as a dead control. On each plate, five technical replicates per compound were performed. 72 hours post-treatment, cell viability was assessed using the Alamar Blue method (http://www.bio-rad-antibodies.com/measuring-cytotoxicity-proliferation-spectrophotometry-fluorescence-alamarBlue.html). […] Conversion of Alamar Blue was measured with a plate reader (SpectraMax M3; Molecular Devices) by fluorescence (excitation wavelength: 555 nm; emission wavelength: 585 nm; cutoff 570 nm; autogain). Percentage death was determined by normalizing to water-treated cells and Raptinal-treated cells. […]

[3] = test system: HepG2 (liver cancer); test: Cytotoxicity profiling (Alamar Blue), HepG2; format: cell-based, human
Method: as §1, §2

With `O=C(O)/C=C(\C(=O)O)C(O)P(=O)(O)O` (centres unmarked) [pantaphos, 2-(hydroxy(phosphono)methyl)maleate] the MIC ([1]; Candida albicans, SN250, RPMI 1640 medium, 48 hrs growth, CLSI, read-out: MIC, Rich medium) was greater than 125 µM, the “effect on the growth of fungi, in words” value ([1]; rich or minimal media) was “no effect on the growth” and the Emax ([2]; Homo sapiens, MCF7, MCF-7, Alamar Blue, 72-hour treatment) was 90 to 92%. The IC50 ([2]; Homo sapiens, MCF7, MCF-7, Alamar Blue, 72-hour treatment (Table 6)) was 2.88 ± 6.28 µM, the “sensitivity of the cell line to the compound, in words” value ([2]; MCF-7) was “sensitive” and the “sensitivity of the cell line to the compound, in words” value ([3]; HepG2) was “sensitive”. For the same molecule, the Emax ([3]; Homo sapiens, HepG2, Alamar Blue, 72-hour treatment) was 71 to 77% and the IC50 ([3]; Homo sapiens, HepG2, Alamar Blue, 72-hour treatment (Table 6)) was 4.22 ± 0.57 µM.
